From US12594276B2, “Inhibitors of human immunodeficiency virus replication” (ViiV Healthcare UK (No.5) Limited, priority 2024, dated 2026)
pEC50: −log10 of the molar value.

These compounds were tested on recombinant NL4-3 virus (nef section replaced with Renilla luciferase gene) in MT-2 cells (assay: HIV cell culture assay (antiviral activity, luciferase readout)). Conditions: Renilla, NL43, MT-2 cells infected for 4-5 days with recombinant NL4-3 Renilla luciferase virus.
Format: cell-based
Experimental: HIV cell culture assay—MT-2 cells, 293T cells and the proviral DNA clone of NL4-3 virus were obtained from the NIH AIDS Research and Reference Reagent Program. MT-2 cells were propagated in RPMI 1640 media supplemented with 10% heat inactivated fetal bovine serum (FBS), […]. The 293T cells were propagated in DMEM media supplemented with 10% heat inactivated FBS, […]. A recombinant NL4-3 proviral clone, in which a section of the nef gene was replaced with the Renilla luciferase gene, was used to make the reference virus used in these studies. The recombinant virus was prepared through transfection of the recombinant NL4-3 proviral clone into 293T cells using Transit-293 Transfection Reagent from Mirus Bio LLC (Madison, WI). Supernatant was harvested after 2-3 days and the amount of virus present was titered in MT-2 cells using luciferase enzyme activity as a marker by measuring luciferase enzyme activity. Luciferase was quantitated using the EnduRen Live Cell Substrate from Promega (Madison, WI). Antiviral activities of compounds toward the recombinant virus were quantified by measuring luciferase activity in MT-2 cells infected for 4-5 days with the recombinant virus in the presence of serial dilutions of the compound.
The 50% effective concentration (EC50) was calculated by using the exponential form of the median effect equation where (Fa)=1/[1+(ED50/drug conc.)m](Johnson V A, Byington R T. Infectivity Assay. In Techniques in HIV Research. ed. Aldovini A, Walker B D. 71-76. New York: Stockton Press. 1990). Curve fitting and analysis were performed with ActivityBase XE Runner software version 9.1.0.4 using model 203 (ID Business Solutions, LTD, Guildford, UK).
With CS(=O)(=O)Nc1nn(CCN2C[C@H](F)C[C@H](F)C2)c2c(-n3c([C@H](Cc4cc(F)cc(F)c4)NC(=O)Cn4nc(C(F)F)c5c4C(F)(F)[C@@H]4C[C@H]54)nc4nc(C5CCC(F)(F)CC5)cc(CN5CC(F)(F)C5)c4c3=O)ccc(Cl)c12 (atropisomer, axis not shown; (P)) [Example 620, N-[(1S)-1-[(3P)-3-(4-chloro-1-{2-[(3R,5S)-3,5-difluoropiperidin-1-yl]ethyl}-3-methanesulfonamido-1H-indazol-7-yl)-5-[(3,3-difluoroazetidin-1-yl)methyl]-7-(4,4-difluorocyclohexyl)-4-oxo-3H,4H-pyrido[2,3-d]pyrimidin-2-yl]-2-(3,5-difluorophenyl)ethyl]-2-[(2S,4R)-9-(difluoromethyl)-5,5-difluoro-7,8-diazatricyclo[4.3.0.0^2,]nona-1(6),8-dien-7-yl]acetamide] the pEC50 was 11.15. Compound Cc1cc(C2CCC(F)(F)CC2)nc2nc([C@H](Cc3cc(F)cc(F)c3)NC(=O)Cn3nc(C4CC4)c4c3C[C@H]3C[C@@H]43)n(-c3ccc(Cl)c4c(NS(C)(=O)=O)nn(CCN5CC(C)(C)OC(C)(C)C5)c34)c(=O)c12 (atropisomer, axis not shown; (P)) [Example 606, N-[(1S)-1-[(3P)-3-{4-chloro-3-methanesulfonamido-1-[2-(2,2,6,6-tetramethylmorpholin-4-yl)ethyl]-1H-indazol-7-yl}-7-(4,4-difluorocyclohexyl)-5-methyl-4-oxo-3H,4H-pyrido[2,3-d]pyrimidin-2-yl]-2-(3,5-difluorophenyl)ethyl]-2-[(2R,4R)-9-cyclopropyl-7,8-diazatricyclo[4.3.0.0^2,^4]nona-1(6),8-dien-7-yl]acetamide] has a pEC50 of 10.59. Compound Cc1cc(C2(F)CCC(F)(F)CC2)nc2nc([C@H](Cc3cc(F)cc(F)c3)NC(=O)Cn3nc(C4CC4)c4c3C[C@@H]3C[C@H]43)n(-c3ccc(Cl)c4c(NS(C)(=O)=O)nn([C@H](C)C(=O)N5C[C@H](F)C[C@H](F)C5)c34)c(=O)c12 (relative stereo) [Example 756, N-[(1S)-1-[(3P)-3-{4-chloro-1-[(2R)-1-[(3R,5S)-3,5-difluoropiperidin-1-yl]-1-oxopropan-2-yl]-3-methanesulfonamido-1H-indazol-7-yl}-5-methyl-4-oxo-7-(1,4,4-trifluorocyclohexyl)-3H,4H-pyrido[2,3-d]pyrimidin-2-yl]-2-(3,5-difluorophenyl)ethyl]-2-[(2R*,4R*)-9-cyclopropyl-7,8-diazatricyclo[4.3.0.0^2,^4]nona-1(6),8-dien-7-yl]acetamide] has a pEC50 of 10.43. Work on Cc1cc(C2CCC(F)(F)CC2)nc2nc([C@H](Cc3cc(F)cc(F)c3)NC(=O)Cn3nc(C4CC4)c4c3C(F)(F)[C@@H]3C[C@H]43)n(-c3ccc(Cl)c4c(NS(C)(=O)=O)nn(CCN5CC(C)(C)OC(C)(C)C5)c34)c(=O)c12 (atropisomer, axis not shown; (P)) [Example 610, N-[(1S)-1-[(3P)-3-{4-chloro-3-methanesulfonamido-1-[2-(2,2,6,6-tetramethylmorpholin-4-yl)ethyl]-1H-indazol-7-yl}-7-(4,4-difluorocyclohexyl)-5-methyl-4-oxo-3H,4H-pyrido[2,3-d]pyrimidin-2-yl]-2-(3,5-difluorophenyl)ethyl]-2-[(2S,4R)-9-cyclopropyl-5,5-difluoro-7,8-diazatricyclo[4.3.0.0^2,^4]nona-1(6),8-dien-7-yl]acetamide] yielded a pEC50 of 10.77.
